This is an account of results in patent US9557338B2 (SIGNAL PHARMACEUTICALS, LLC, priority 2012, dated 2017).

SMILES strings stand for the structures.

Common to all, as to assay type: cell-based
Experiment [1] deals with p70S6K. Nature of the experiment: Luminex multiplex assay, p70S6K phosphorylation in cell lysates. Conditions: PC3 cell line; read-out: Luminex p70S6K. An excerpt:
(§1) The multiplex Luminex assay format differs from conventional enzyme-linked immunosorbent assay (ELISA) in that the multiplex capture antibody is attached to a polystyrene bead whereas the ELISA capture antibody is attached to the microplate well. The use of the suspension bead-based technology enables the multiplexing capabilities of the Luminex assays. The xMAP® technology uses 5.6 micron polystyrene microspheres, which are internally dyed with red and infrared fluorophores of differing intensities. Each bead is given a unique number, or bead region, allowing differentiation of one bead from another. Beads covalently bound to different specific antibodies can be mixed in the same assay, utilizing a 96-well microplate format. At the completion of the sandwich immunoassay, beads can be read, using the Luminex 100™ or Luminex 200 detection system, in single-file by dual lasers for classification and quantification of each analyte. The Akt-Pathway Phospho 5-plex kit used was custom made and includes the ability to simultaneously measure p-GSK3β (S9), p-PRAS40(T246), and p-4E-BP1(T46).
(§2) Cells were plated at the required density. The cells were treated with either Compound 1 or rapamycin over a range of concentrations for 1 hour in 5% CO2 at 37° C. Compound 1 and rapamycin were used at the same concentrations as for the proliferation assay. As for the cell proliferation assay, a reference standard was included in the assay for PC3 cells and the coefficient of variation for assay of p-GSK3β(S9) was 37.8% (n=30), p-PRAS40(T246) was 27.8% (n=30) and for p4E-BP1(T46) was 13.5% (n=4). For three cell lines (HCT-116, MDA-MB-231 and HT29) in the assay for phosphorylation of GSK3β, PRAS40 and 4E-BP1, IGF-I stimulation (500 ng/mL, recombinant human IGF-I) for the last 10 min of incubation was used. The media was aspirated from the wells and the plate was placed on ice. Then 35 μL of Lysis Buffer was added to each well and incubated on ice for at least 30 minutes. During the incubation, the standard curve for each phosphoprotein was prepared. The standards provided were reconstituted and serial dilutions were prepared according to the manufacturer's instructions. At the end of the cell lysis step, […] of the lysate was transferred to a V-bottom plate and spun at 4° C. at 2000 rpm for 5 minutes. Both the 1× Luminex bead and 1× detector antibody solutions were prepared during this time. The 1× bead solution was vortexed and 25 μL was added into each well of a black round bottom plate. Then 50 μL of the 1× detector antibody was added to each well. Fifty microliters (50 μL) of the prepared standards were added to the designated wells. Then 25 μL of the assay diluent was added to each well designated for the compound-treated cell lysates. At the end of the spin, 25 μL of cell lysate was added to the corresponding wells of the black assay plate. The assay plate was covered with the white plate lid and incubated for 3 hours at room temperature on an orbital shaker.
(§3) Approximately 10-15 minutes prior to the end of the first incubation, the secondary antibody solution was prepared according to the vendor's protocol. Goat anti-rabbit R-phycoerythrin red fluorescent protein (RPE) supplied as a 10× concentrate was diluted to generate a 1× goat anti-rabbit RPE stock. The 96-well filter plate was pre-wet with 200 μL of 1× Working wash solution. At the end of the 3 hour incubation, a multichannel pipette was used to transfer the entire contents from each assay well into the wells of the filter plate. The liquid from the wells was removed by aspiration with the vacuum manifold. Then 200 μL of 1× Working wash solution was added into each well. The wash solution was aspirated using the vacuum manifold after 15-30 seconds. This wash step was repeated one time. The bottom of the plate was blotted on clean paper towels to remove residual liquid. […]

For experiment [2], the system named is Phospho-GSK3β(S9). Nature of the experiment: Luminex multiplex assay, Phospho-GSK3β(S9). Conditions: PC3 cell line; read-out: Luminex GSK-3β.
Text: (§4) Determination of Phospho-GSK3β(S9), Phospho-PRAS40(T246) and Phospho-4E-BP1(T46) and the Effect of Compound 1 or Rapamycin.
as §1, §2, §3

Experiment [3] relates to Phospho-PRAS40(T246). Nature of the experiment: Luminex multiplex assay, Phospho-PRAS40(T246). To be noted: PC3 cell line; read-out: Luminex PRAS40.
Text: as §4, §1, §2, §3

On to `O=C1CNc2ncc(-c3cnc4[nH]ccc4c3)nc2N1CCC1CCOCC1` [C-61], for which the results for the IC50 in experiment [1], in experiment [2] and in experiment [3] were 3 nM, 33 nM and 21 nM, respectively.

As to `O=C1CNc2ncc(-c3ccc4[nH]ncc4c3)nc2N1CCC1CCOCC1` [C-62], the IC50 was 33 nM in experiment [1], 568 nM in experiment [2] and 349 nM in experiment [3].

Regarding `NC(=O)c1ccc(-c2cnc3c(n2)N(CCC2CCOCC2)C(=O)CN3)cc1` [C-63], the IC50 in experiment [1] amounted to 216 nM; in experiment [2] it was 927 nM; in experiment [3] it was 842 nM.

Take `CC(C)(O)c1ccc(-c2cnc3c(n2)N([C@H]2CC[C@@H](O)CC2)C(=O)CN3)cn1` [C-64]: the IC50 in experiment [1] came to 61 nM; in experiment [2], 299 nM; in experiment [3], 349 nM.

`CC(C)(O)c1ccc(-c2cnc3c(n2)N([C@H]2CC[C@H](O)CC2)C(=O)CN3)cn1` [C-65]: the values for the IC50 in experiment [1], in experiment [2] and in experiment [3] were 40 nM, 266 nM and 207 nM, respectively.

Turning to `O=C1CNc2ncc(-c3cnc4nc[nH]c4c3)nc2N1CCC1CCOCC1` [C-67], the IC50 in experiment [1], in experiment [2] and in experiment [3] was over 1500 nM throughout.

For `O=C1CN(CCC2CCOCC2)c2nc(-c3ccc4cn[nH]c4c3)cnc2N1` [C-68], the IC50 in experiment [1] is 752 nM; in experiment [2] it was over 1500 nM; in experiment [3] it was over 1500 nM.

Consider `CC(C)(O)c1ccc(-c2cnc3c(n2)N(CCN2CCOCC2)C(=O)CN3)cn1` [C-70], for which the IC50 in experiment [1] is 540 nM; in experiment [2], 700 nM; in experiment [3] it was over 1500 nM.

As to `O=C1CN(CCC2CCOCC2)c2nc(-c3cnc4nc[nH]c4c3)cnc2N1` [C-74], the IC50 in experiment [1], in experiment [2] and in experiment [3] was over 1500 nM each time.

`O=C1CNc2ncc(-c3ccc4cn[nH]c4c3)nc2N1CCC1CCOCC1` [C-75]: the figures for the IC50 in experiment [1], in experiment [2] and in experiment [3] were 173 nM, over 1500 nM and over 1500 nM, respectively.

On to `O=c1[nH]c2ncc(-c3ccc(C4(O)COC4)nc3)nc2n1CCC1CCOCC1` [C-76], for which the IC50 in experiment [1], in experiment [2] and in experiment [3] was over 1500 nM in each case.

As to `O=c1[nH]c2ncc(-c3ccc(C4(O)COC4)cn3)nc2n1CCC1CCOCC1` [C-77], the IC50 in experiment [1], in experiment [2] and in experiment [3] was over 1500 nM throughout.

Consider `COC1CCC(N2C(=O)CNc3ncc(-c4ccc(C(C)(C)O)nc4)nc32)C1` (stereo not drawn) [C-78], for which the IC50 in experiment [1] is 1290 nM; in experiment [2] it was over 1500 nM; in experiment [3], over 1500 nM.

With `CO[C@H]1CC[C@H](N2C(=O)CNc3ncc(-c4ccc(C(C)(C)O)nc4)nc32)C1` [C-79], the IC50 in experiment [1] is 981 nM; in experiment [2] it was over 1500 nM; in experiment [3], over 1500 nM.

Take `CO[C@@H]1CC[C@H](N2C(=O)CNc3ncc(-c4ccc(C(C)(C)O)nc4)nc32)C1` [C-80]: the IC50 in experiment [1] is 133 nM; in experiment [2], 841 nM; in experiment [3], 724 nM.

Take `COC1CCC(N2C(=O)CNc3ncc(-c4ccc(C(C)(C)O)nc4)nc32)C1` (stereo not drawn) [C-81]: the IC50 was 134 nM in experiment [1], over 1500 nM in experiment [2] and 847 nM in experiment [3].

Consider `COC1CCC(N2CC(=O)Nc3ncc(-c4cnc(C(N)=O)cc4C)nc32)CC1` (stereo not drawn) [C-82], for which the IC50 is 467 nM in experiment [1], over 1500 nM in experiment [2] and over 1500 nM in experiment [3].

For the compound `N#Cc1cccc(-c2cnc3c(n2)N(CCC2CCOCC2)CC(=O)N3)c1` [C-83], the IC50 in experiment [1], in experiment [2] and in experiment [3] was over 1500 nM in each case.

For the compound `NC(=O)c1cccc(-c2cnc3c(n2)N(CCC2CCOCC2)CC(=O)N3)c1` [C-84], the IC50 in experiment [1], in experiment [2] and in experiment [3] was over 1500 nM each time.

`CC(C)(O)c1ccc(-c2cnc3c(n2)N(Cc2cccc(C#N)c2)C(=O)CN3)cn1` [C-85]: the IC50 stood at 27 nM in experiment [1], 30 nM in experiment [2] and 139 nM in experiment [3].

As for `COCCN1CC(=O)Nc2ncc(-c3cnc(C(N)=O)cc3C)nc21` [C-86], the IC50 in experiment [1] is 310 nM; in experiment [2], 939 nM; in experiment [3] it was over 1500 nM.

With `O=C1CN(CCC2CCOCC2)c2nc(-c3cccc(-c4ncn[nH]4)c3)cnc2N1` [C-87], the IC50 in experiment [1] is 910 nM; in experiment [2] it was over 1500 nM; in experiment [3] it was over 1500 nM.

Turning to `COCCN1CC(=O)Nc2ncc(-c3cnc(-c4ncn[nH]4)cc3C)nc21` [C-88], the IC50 in experiment [1] was 3 nM; in experiment [2], 8 nM; in experiment [3], 23 nM.

For the compound `COC1CCC(CN2C(=O)CNc3ncc(-c4cnc(C(N)=O)cc4C)nc32)CC1` (stereo not drawn) [C-89], the results for the IC50 in experiment [1], in experiment [2] and in experiment [3] were 102 nM, 860 nM and 1010 nM, respectively.

Turning to `NC(=O)c1cccc(-c2cnc3c(n2)N(CCC2CCOCC2)C(=O)CN3)c1` [C-90], the values for the IC50 in experiment [1], in experiment [2] and in experiment [3] were 1330 nM, over 1500 nM and over 1500 nM, respectively.

For the compound `COC1CCC(CN2C(=O)CNc3ncc(-c4cnc(-c5nc[nH]n5)cc4C)nc32)CC1` (stereo not drawn) [C-91], the IC50 in experiment [1] amounted to 2 nM; in experiment [2], 4 nM; in experiment [3], 7 nM.

As for `Cc1nc(-c2nnc[nH]2)ccc1-c1cnc2c(n1)N(Cc1cccc(C#N)c1)C(=O)CN2` [C-92], the values for the IC50 in experiment [1], in experiment [2] and in experiment [3] were 1 nM, 8 nM and 9 nM, respectively.

Turning to `O=C1CNc2ncc(-c3cn[nH]c3)nc2N1CCC1CCOCC1` [C-94], the IC50 was 209 nM in experiment [1], over 1500 nM in experiment [2] and over 1500 nM in experiment [3].

In the case of `COC1CCC(CN2C(=O)CNc3ncc(-c4cnc(C(N)=O)cc4C)nc32)CC1` (stereo not drawn) [C-95], the results for the IC50 in experiment [1], in experiment [2] and in experiment [3] were 29 nM, 234 nM and 308 nM, respectively.

`Cc1cc(C(N)=O)ncc1-c1cnc2c(n1)N(CC1CCOCC1)C(=O)CN2` [C-96]: the IC50 worked out at 129 nM in experiment [1], 721 nM in experiment [2] and 919 nM in experiment [3].

Turning to `CCN1C(=O)CNc2ncc(-c3ccc4cn[nH]c4c3)nc21` [C-97], the IC50 in experiment [1], in experiment [2] and in experiment [3] was over 1500 nM each time.

`COC1CCC(N2C(=O)CNc3ncc(-c4ccc(C(C)(C)O)[n+]([O-])c4)nc32)CC1` (stereo not drawn) [C-98]: the results for the IC50 in experiment [1], in experiment [2] and in experiment [3] were 825 nM, over 1500 nM and over 1500 nM, respectively.

With `Cc1nc(-c2nnc[nH]2)ccc1-c1cnc2c(n1)N(C)C(=O)CN2` [C-99], the IC50 stood at 11 nM in experiment [1], 348 nM in experiment [2] and 274 nM in experiment [3].

`Nc1ccc(-c2cnc3c(n2)N(CCC2CCOCC2)C(=O)CN3)cn1` [C-100]: the IC50 in experiment [1] turned out to be 15 nM; in experiment [2], 608 nM; in experiment [3], 564 nM.

On to `O=C1CNc2ncc(-c3ccncc3)nc2N1CCC1CCOCC1` [C-101], for which the IC50 in experiment [1] was 469 nM; in experiment [2], over 1500 nM; in experiment [3] it was over 1500 nM.

Take `CCN1C(=O)CNc2ncc(-c3cccc4[nH]ncc34)nc21` [C-102]: the IC50 in experiment [1], in experiment [2] and in experiment [3] was over 1500 nM throughout.

With `COCCN1C(=O)CNc2ncc(-c3cnc4[nH]ccc4c3)nc21` [C-104], the results for the IC50 in experiment [1], in experiment [2] and in experiment [3] were under 1.5 nM, 168 nM and 106 nM, respectively.

With `COc1ccc(-c2cnc3c(n2)N(CCC2CCOCC2)C(=O)CN3)cn1` [C-105], the IC50 is 252 nM in experiment [1], over 1500 nM in experiment [2] and over 1500 nM in experiment [3].
